IC50 data for 16 compounds are collected here from patent publication US8933079B2, “Pyridone and pyridazinone derivatives as anti-obesity agents” (Boehringer Ingelheim International GmbH, priority 2012, dated 2015).

In this test the target is hMCH-1R (Homo sapiens (Human), UniProt Q99705). The test is described as follows: MCH-1 receptor binding test (125I-MCH binding to hMCH-1R transfected cell membranes). To be noted: competition with 100 pM 125I-MCH, membranes of CHO/Galpha16 cells stably transfected with hMCH-1R. The protocol: Res Commun. […] After the incubation the reaction is filtered using a cell harvester through 0.5% PEI treated fibreglass filters (GF/B, Unifilter Packard). The membrane-bound radioactivity retained on the filter is then determined after the addition of scintillator substance (Packard Microscint 20) in a measuring device (TopCount of Packard). […] The analysis of the concentration binding curve is carried out on the assumption of one receptor binding site.

Each structure is given as a SMILES string.

hMCH-1R, sequence (Q99705 whole entry): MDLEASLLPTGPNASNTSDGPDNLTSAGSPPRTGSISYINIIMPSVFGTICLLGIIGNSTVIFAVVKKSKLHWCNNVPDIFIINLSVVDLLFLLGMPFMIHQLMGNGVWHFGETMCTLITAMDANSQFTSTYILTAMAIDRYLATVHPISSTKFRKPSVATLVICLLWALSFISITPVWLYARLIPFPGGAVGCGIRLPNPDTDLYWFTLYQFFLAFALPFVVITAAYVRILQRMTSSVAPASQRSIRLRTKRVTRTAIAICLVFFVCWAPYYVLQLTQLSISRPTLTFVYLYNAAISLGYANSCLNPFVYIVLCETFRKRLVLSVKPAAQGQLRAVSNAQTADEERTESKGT

`Cc1cc(CN2CC[C@@H](O)C2)ccc1C(=O)Cn1ncc(OCc2ccc(Cl)cn2)cc1=O` [Example 7.9] displayed an IC50 of 0.032 µM.
The result for `Cc1cc(CN2CCC[C@H](O)C2)ccc1C(=O)Cn1ncc(OCc2ccc(Cl)cn2)cc1=O` [Example 7.10] reads 0.025 µM; that for `Cc1cc(CN2CCC[C@@H](O)C2)ccc1C(=O)Cn1ncc(OCc2ccc(Cl)cn2)cc1=O` [Example 7.11], 0.031 µM.
The result for `Cc1cc(CN2CC[C@H](O)C2)ccc1C(=O)Cn1ncc(OCc2ccc(Cl)cn2)cc1=O` [Example 7.12] reads 0.03 µM; that for `Cc1cc(CN2CCCC[C@@H]2CO)ccc1C(=O)Cn1ncc(OCc2ccc(Cl)cn2)cc1=O` [Example 7.13, (R)-5-(5-Chloro-pyridin-2-ylmethoxy)-2-{2-[4-(2-hydroxymethyl-piperidin-1-ylmethyl)-2-methyl-phenyl]-2-oxo-ethyl}-2H-pyridazin-3-one], 0.035 µM; that for `Cc1cc(CN2CCC(O)CC2)ccc1C(=O)Cn1ncc(OCc2ccc(Cl)cn2)cc1=O` [Example 7.14, 5-(5-Chloro-pyridin-2-ylmethoxy)-2-{2-[4-(4-hydroxy-piperidin-1-ylmethyl)-2-methyl-phenyl]-2-oxo-ethyl}-2H-pyridazin-3-one], 0.03 µM.
Next, `Cc1cc(CN2CCCC2)ccc1C(=O)Cn1ncc(OCc2ccc(Cl)cn2)cc1=O` [Example 7.15, 5-(5-Chloro-pyridin-2-ylmethoxy)-2-[2-(2-methyl-4-pyrrolidin-1-ylmethyl-phenyl)-2-oxo-ethyl]-2H-pyridazin-3-one]: 0.019 µM.
`Cc1cc(CN(C)C)ccc1C(=O)Cn1ncc(OCc2ccc(Cl)cn2)cc1=O` [Example 7.16, 5-(5-Chloro-pyridin-2-ylmethoxy)-2-[2-(4-dimethylaminomethyl-2-methyl-phenyl)-2-oxo-ethyl]-2H-pyridazin-3-one] had an IC50 of 0.024 µM.
Next, `Cc1cc(CN2CCNCC2)ccc1C(=O)Cn1ncc(OCc2ccc(Cl)cn2)cc1=O` [Example 7.17, 5-(5-Chloro-pyridin-2-ylmethoxy)-2-[2-(2-methyl-4-piperazin-1-ylmethyl-phenyl)-2-oxo-ethyl]-2H-pyridazin-3-one]: 0.083 µM; `Cc1cc(CN2CC[C@@H](O)C2)ccc1C(=O)Cn1ncc(OCc2ccc(Br)cn2)cc1=O` [Example 8.1, (R)-5-(5-Bromo-pyridin-2-ylmethoxy)-2-{2-[4-(3-hydroxy-pyrrolidin-1-ylmethyl)-2-methyl-phenyl]-2-oxo-ethyl}-2H-pyridazin-3-one]: 0.022 µM.
In turn, `Cc1cc(CN2CC(O)C2)ccc1C(=O)Cn1ncc(OCc2ccc(Br)cn2)cc1=O` [Example 8.2, 5-(5-Bromo-pyridin-2-ylmethoxy)-2-{2-[4-(3-hydroxy-azetidin-1-ylmethyl)-2-methyl-phenyl]-2-oxo-ethyl}-2H-pyridazin-3-one] yielded an IC50 of 0.019 µM.
The result for `Cc1cc(CN2CCC[C@H](O)C2)ccc1C(=O)Cn1ncc(OCc2ccc(Br)cn2)cc1=O` [Example 8.4] reads 0.024 µM; that for `Cc1cc(CN2CCC(C)(O)C2)ccc1C(=O)Cn1ncc(OCc2ccc(Br)cn2)cc1=O` (stereo not shown) [Example 8.5], 0.018 µM; that for `Cc1cc(CN2CCC[C@@H](O)C2)ccc1C(=O)Cn1ncc(OCc2ccc(Br)cn2)cc1=O` [Example 8.6, (R)-5-(5-Bromo-pyridin-2-ylmethoxy)-2-{2-[4-(3-hydroxy-piperidin-1-ylmethyl)-2-methyl-phenyl]-2-oxo-ethyl}-2H-pyridazin-3-one], 0.021 µM.
Turning to `Cc1cc(CN2CCCC[C@@H]2CO)ccc1C(=O)Cn1ncc(OCc2ccc(Br)cn2)cc1=O` [Example 8.7, (R)-5-(5-Bromo-pyridin-2-ylmethoxy)-2-{2-[4-(2-hydroxymethyl-piperidin-1-ylmethyl)-2-methyl-phenyl]-2-oxo-ethyl}-2H-pyridazin-3-one], the IC50 is 0.02 µM.
Compound `CCNCc1ccc(C(=O)Cn2ncc(OCc3ccc(Br)cn3)cc2=O)c(C)c1` [Example 8.8, 5-(5-Bromo-pyridin-2-ylmethoxy)-2-[2-(4-ethylaminomethyl-2-methyl-phenyl)-2-oxo-ethyl]-2H-pyridazin-3-one] showed an IC50 of 0.017 µM.

In general, IC50 refers to the midpoint of a concentration-inhibition curve. A lower IC50 goes with higher potency.
